# How the values were obtained:
# [1] = system: aconitine arrhythmia in female Wistar rats; type: in vivo, rat (female Wistar); conditions: for ED73 i.v. (aconitine, rat): dose which inhibits aconitine arrhythmia up to the occurrence of isolated ventricular extrasystoles: female Wistar rats, Probit regression, confidence interval p=0.05 in parentheses; for Q = LD50 i.v./ED73 i.v. (therapeutic breadth): rat, ratio of LD50 to ED73 (aconitine model)
# Procedure: ED73 i.v. =the dose in mg/kg, which inhibits aconitine arrhythmia in female Wistar rats after i.v. administration of the test substance up to the occurrence of isolated ventricular extrasystolea (K. Femmer et al., Pharmazie 31, page 36 (1976). The data is analyzed by the Probit regression analysis with a confidence interval of p=0.05 (values given in parentheses).
# in vivo = conditions: rat, iv, male or female Wistar rats, i.v. tail vein, Probit regression, confidence interval p=0.05 in parentheses, read-out: LD50 i.v. (acute tox., rat)
# Description: LD50 i.v. =lethal dose in mg/kg for 50% of the experimental animals of an orientating acute toxicity test on male or female Wistar rats of our own breed, i.v. administration in the tail vein, 3-4 dosages, 10 animals per group. Data analyzed by the Probit regression analysis with a confidence interval of p=0.05 (values given in parentheses).
# [2] = system: dogs, 24 hours after a 2-step coronary ligature; assay: 2-step coronary ligature in dogs (Harris model); type: in vivo, dog
# Description: It is also emphasized that, in comparative investigations of the 2-step coronary ligature in dogs (Harris model), the new compounds of formula I have an advantageously sustained duration of action (see Table 1).
# Solubility = type: physicochemical
SMILES,"ED73 i.v. (aconitine, rat): dose which inhibits aconitine arrhythmia up to the occurrence of isolated ventricular extrasystoles [1]",Q = LD50 i.v./ED73 i.v. (therapeutic breadth) [1],LD50 (in vivo) [mg/kg],"duration of action (dog, Harris) ([2]; at eff. dose 1.0 mg/kg i.v.) [min]","duration of action (dog, Harris) ([2]; at eff. dose 2.0 mg/kg i.v.) [min]",solubility of the base in dilute acids (in words) (Solubility),"duration of action (dog, Harris) ([2]; at eff. dose 6.0 mg/kg i.v.) [min]"
CCCCCCNCC(=O)N1c2ccccc2CCc2ccc(NC(=O)OCC)cc21 [No. 9],0.90 mg/kg,16,14,,,,
CCNCC(=O)N1c2ccccc2CCc2ccc(NC(=O)OCC)cc21 [No. 3],0.09 mg/kg,107,9.6,60,180,,
"CCOC(=O)Nc1ccc2c(c1)N(C(=O)CNC1CCCCC1)c1ccccc1CC2 [No. 8, 3-carbethoxyamino-5-cyclohexylamino-acetyl-10,11-dihydro-5H-dibenz[b,f]azepine]",0.25 mg/kg,15,3.7,,,,
"CCOC(=O)Nc1ccc2c(c1)N(C(=O)CNCCO)c1ccccc1CC2 [No. 2, 3-carbethoxyamino-5-(beta-oxyethylamino)acetyl-10,11-dihydro-5H-dibenz[b,f]azepine]",0.19 mg/kg,63,12,,60,,
"CCNCC(=O)N1c2ccccc2CCc2ccc(NC(=O)OC(C)C)cc21 [No. 13, 3-carbisopropoxyamino-5-ethylamino-acetyl-10,11-dihydro-5H-dibenz[b,f]azepine]",0.47 mg/kg,34,16,,,,
"CCOC(=O)Nc1ccc2c(c1)N(C(=O)CNC(C)c1ccccc1)c1ccccc1CC2 (stereo not drawn) [No. 22, 3-carbethoxyamino-5-(α-phenylethylamino)-acetyl-10,11-dihydro-5H-dibenz[b,f]azepine]",3.5 mg/kg,9,31,,,,
"CCOC(=O)Nc1ccc2c(c1)N(C(=O)CNC(C)C)c1ccccc1CC2 [No. 4, 3-carbethoxyamino-5-isopropylamino-acetyl-10,11-dihydro-5H-dibenz[b,f]azepine]",0.71 mg/kg,12,8.2,,,,
CC(C)OC(=O)Nc1ccc2c(c1)N(C(=O)CNCCO)c1ccccc1CC2 [No. 12],0.51 mg/kg,39,20,,,,
"CCCCNCC(=O)N1c2ccccc2CCc2ccc(NC(=O)OCC)cc21 [No. 7, 3-carbethoxyamino-5-n-butylamino-acetyl-10,11-dihydro-5H-dibenz[b,f]azepin]",0.29 mg/kg,17,5,,,,
CC(C)OC(=O)Nc1ccc2c(c1)N(C(=O)CNC(C)(C)C)c1ccccc1CC2 [No. 14],0.18 mg/kg,,,,,,
"Cc1cccc(C)c1OCC(C)N (stereo not shown) [Mexiletin, mexiletin, reference compound]",15 mg/kg,,41,,,,
CCOC(=O)Nc1ccc2c(c1)N(C(=O)CNC)c1ccccc1C=C2 [No. 19],0.32 mg/kg,34,11,,,,
"CCOC(=O)Nc1ccc2c(c1)N(C(=O)CN(C)C)c1ccccc1CC2 [Bonnecor ®, 3-carbethoxyamino-5-dimethylaminoacetyl-10,11-dihydro-5H-dibenz[b,f]azepine, reference compound]",0.28 mg/kg,39,11,,15,,
"CCOC(=O)Nc1ccc2c(c1)N(C(=O)CCN1CCOCC1)c1ccccc1S2 [Morazicine, morazicine, reference compound]",1.1 mg/kg,10,11,,15,,
"CCCNCC(=O)N1c2ccccc2CCc2ccc(NC(=O)OCC)cc21 [No. 5, 3-carbethoxyamino-5-n-propylamino-acetyl-10,11-dihydro-5H-dibenz[b,f]azepine]",0.18 mg/kg,34,6.1,,,,
COC(=O)Nc1ccc2c(c1)N(C(=O)CNCCO)c1ccccc1CC2 [No. 16],0.40 mg/kg,90,36,,,,
"CCNCC(=O)N1c2ccccc2C=Cc2ccc(NC(=O)OCC)cc21 [No. 20, 3-carbethoxyamino-5-ethylamino-acetyl-acetyl-5H-dibenz[b,f]azepine]",0.40 mg/kg,15,6.2,,,,
CCOC(=O)Nc1ccc2c(c1)N(C(=O)CCNCCO)c1ccccc1CC2 [No. 18],0.85 mg/kg,24,20,,60,,
"CCNCCC(=O)N1c2ccccc2CCc2ccc(NC(=O)OCC)cc21 [No. 21, 3-carbethoxyamino-5-(β-ethylaminopropionyl)-10,11-dihydro-5H-dibenz[b,f]azepine]",0.42 mg/kg,29,12,,,,
"CCOC(=O)Nc1ccc2c(c1)N(C(=O)CNC(C)(C)C)c1ccccc1CC2 [No. 6, 3-carbethoxyamino-5-tertiary-butylamino-acetyl-10,11-dihydro-5H-dibenz[b,f]azepine]",0.35 mg/kg,16,5.6,,,,
CCNCC(=O)N1c2ccccc2CCc2ccc(NC(=O)OC)cc21 [No. 17],0.95 mg/kg,20,19,,15,,
CNCC(=O)N1c2ccccc2CCc2ccc(NC(=O)OC(C)C)cc21 [No. 11],0.61 mg/kg,25,15,,,,
"CCOC(=O)Nc1ccc2c(c1)N(C(=O)CNCc1ccccc1)c1ccccc1CC2 [No. 1, 3-carbethoxyamino-b 5-benzylaminoacetyl-10,11-dihydro-5H-dibenz[b,f]azepine]",0.79 (0.53-1.2) mg/kg,16,13,,,not very soluble in dilute acids,
"CCOC(=O)Nc1ccc2c(c1)N(C(=O)CN)c1ccccc1CC2 [No. 10, 3-carbethoxyamino-5-amino-acetyl-10,11-dihydro-5H-dibenz[b,f]azepine]",0.20 mg/kg,70,14,,,,
CNCC(=O)N1c2ccccc2CCc2ccc(NC(=O)OC)cc21 [No. 15],0.30 mg/kg,67,20,,15,,
"CCN(CC)CC(=O)Nc1c(C)cccc1C [Lidocaine, lidocaine, reference compound]",,,,,,,10

# Source: patent publication US5116974A, “3-carbalkoxyamino-5-aminoacyl-5H-dibenz[b,f]azepines, and methods for making” (Arzneimittelwerk Dresden GmbH, priority 1989, dated 1992)
